According to patent US6461619B1 (Somerset Pharmaceuticals, Inc., priority 1998, dated 2002):
Where a name gives a salt, the structure may show the parent alone.

What was measured:
[1] = biological target: T1, monoamine oxidase B (Homo sapiens, UniProt P27338); conditions: background statement; cited from earlier work
T1 sequence (P27338 1-520): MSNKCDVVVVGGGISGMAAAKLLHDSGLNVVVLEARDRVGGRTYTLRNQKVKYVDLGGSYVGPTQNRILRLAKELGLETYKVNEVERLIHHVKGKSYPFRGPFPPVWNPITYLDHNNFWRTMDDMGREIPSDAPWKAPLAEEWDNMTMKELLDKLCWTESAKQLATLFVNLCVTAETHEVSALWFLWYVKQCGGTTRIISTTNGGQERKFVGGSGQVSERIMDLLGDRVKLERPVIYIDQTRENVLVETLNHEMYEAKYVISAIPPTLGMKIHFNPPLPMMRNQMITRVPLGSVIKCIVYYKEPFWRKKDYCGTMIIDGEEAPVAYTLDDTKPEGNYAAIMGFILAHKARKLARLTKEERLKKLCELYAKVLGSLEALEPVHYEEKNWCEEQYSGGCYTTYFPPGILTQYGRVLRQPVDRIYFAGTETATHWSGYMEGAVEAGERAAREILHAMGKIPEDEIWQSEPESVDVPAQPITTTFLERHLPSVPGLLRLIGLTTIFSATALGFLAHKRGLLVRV

[2] = tested on: second-degree burn wounds; test: second-degree burn wound model, epidermal migration (epithelization) assessment; assay type: in vivo, Swine; conditions: for Percent of wounds completely epithelized / number of wounds healed (completely epithelized) over the number of wounds assessed: pig
Procedure: The ability of selegiline and desmethylselegiline to assist in the healing of burns was tested using a second-degree burn wound model. In second-degree burns, the entire surface of the epidermis is destroyed. An epidermal covering is regenerated from the remaining epithelial and epidermal cells adjacent to the burns. This phase of the healing process is called epithelization.
Swine were used for the experimental research animal because their skin has many morphological similarities to human skin. Seven young female specific pathogen free (SPF:Ken-O-Kaw Farms, Windsor, Ill.) pigs weighing 25-30 kg were kept in house for two weeks prior to initiating the experiment. These animals were fed a basal diet ad libitum and housed individually in facilities with controlled temperature (19-21° C.) and lights (12 h/12 h LD).
Experimental animals were clipped with standard animal clippers on the day of the experiment. The skin on the back and both sides of the animal was prepared for wounding by washing with a non-antibiotic soap and sterile water. Each animal was anesthetized i.m. with ketamine-HCl (20 mg/kg), xylazine (2 mg/kg) and atropine (0.05 mg/kg), followed by mask inhalation of an isoflurane and oxygen combination. Five specifically designed cylindrical brass rods weighing 358 g each were heated in a boiling water bath to 100° C. A rod was removed from the water bath and wiped dry before being applied to the skin surface to prevent water droplets from creating a steam burn on the skin. The brass rod was held at a vertical position on the skin for six seconds with all pressure being supplied by gravity in order to make a burn 8.5 mm diameter×0.8 mm deep. Immediately after burning, the roof of the burn blister was removed with a sterile spatula. The burn wounds were made approximately 2 cm from each other.
Approximately 90 burn wounds were made on the anterior two-thirds of the animal. The posterior third of the animal cannot be used because of anatomical differences in burn wound healing (a more rapid healing of burns has been observed at that position).
A total of seven animals were used and a total of fifteen wounds per treatment group were analyzed on each of days 7-12 after wounding. Treatments were coded to maintain blind study compliance. The burn wounds were treated with 25 ug of test article (enough to cover each wound). Treatments were allowed to penetrate into the sites for at least a 20 minute time period. Each treatment was applied within 20 minutes of blister removal and treatment occurred once a day for the first five days.
Beginning on day seven after wounding (day 0) and each day thereafter for four to six days, five burn wounds and the surrounding normal skin from each treatment area were excised using an electrokeratome. Any specimens that were not excised intact were discarded. The excised wounds and the surrounding normal skin were incubated in 0.5 M NaBr for 24 hours at 37° C. After incubation, the specimens were separated into epidermal and dermal sheets. The epidermis was examined macroscopically for defects in the area of the burn wounds. Epithelization was considered complete if no defect was present (healed). […] The epidermal sheet was placed on cardboard for a permanent record.
The number of wounds healed (completely epithelized) were divided by the total number of wounds sampled per day and multiplied by 100.

[3] = biological target: T2, MAO-A (Homo sapiens, UniProt P21397); conditions: in comparison to selegiline, background statement; cited from earlier work
T2 sequence (P21397 1-527): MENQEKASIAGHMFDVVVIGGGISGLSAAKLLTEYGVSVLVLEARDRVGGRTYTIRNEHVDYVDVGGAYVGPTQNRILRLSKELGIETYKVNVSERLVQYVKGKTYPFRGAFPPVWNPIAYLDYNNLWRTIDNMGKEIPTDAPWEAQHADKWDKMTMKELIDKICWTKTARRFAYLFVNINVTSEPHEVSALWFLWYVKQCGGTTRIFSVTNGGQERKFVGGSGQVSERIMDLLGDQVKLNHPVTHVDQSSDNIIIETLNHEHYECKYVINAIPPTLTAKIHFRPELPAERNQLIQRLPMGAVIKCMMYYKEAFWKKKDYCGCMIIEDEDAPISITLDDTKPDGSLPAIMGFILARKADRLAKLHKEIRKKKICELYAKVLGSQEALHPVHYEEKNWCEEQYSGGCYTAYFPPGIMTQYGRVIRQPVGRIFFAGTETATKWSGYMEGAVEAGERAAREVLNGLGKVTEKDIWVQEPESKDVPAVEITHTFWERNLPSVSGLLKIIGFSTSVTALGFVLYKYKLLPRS

[4] = 10^-4M topical, day 7 after burning
[5] = 10^-4M topical, day 8 after burning
[6] = 10^-4M topical, day 9 after burning
[7] = 10^-4M topical, day 10 after burning
[8] = 10^-4M topical, day 11 after burning
[9] = 10^-4M topical, day 12 after burning
[10] = 10^-4M topical, day 13 after burning
[11] = 10^-6M topical, day 7 after burning
[12] = 10^-6M topical, day 8 after burning
[13] = 10^-6M topical, day 9 after burning
[14] = 10^-6M topical, day 10 after burning
[15] = 10^-8M topical, day 7 after burning
[16] = 10^-8M topical, day 8 after burning
[17] = 10^-8M topical, day 9 after burning
[18] = 10^-8M topical, day 10 after burning
[19] = 10^-8M topical, day 11 after burning
[20] = 10^-8M topical, day 12 after burning
[21] = 10^-8M topical, day 13 after burning

C#CCNC(C)Cc1ccccc1 (centres unmarked) [desmethylselegiline HCl, desmethylselegiline]
MAO-B inhibitory activity [1]: reduced MAO-B inhibitory activity in comparison to selegiline
Percent of wounds completely epithelized [2, 4]: (0%)
number of wounds healed (completely epithelized) over the number of wounds assessed [2, 4]:  0/15
Percent of wounds completely epithelized [2, 5]: (0%)
number of wounds healed (completely epithelized) over the number of wounds assessed [2, 5]:  0/15
Percent of wounds completely epithelized [2, 6]: (0%)
number of wounds healed (completely epithelized) over the number of wounds assessed [2, 6]:  0/15
Percent of wounds completely epithelized [2, 7]: (0%)
number of wounds healed (completely epithelized) over the number of wounds assessed [2, 7]:  0/15
Percent of wounds completely epithelized [2, 8]: 7%
number of wounds healed (completely epithelized) over the number of wounds assessed [2, 8]:  1/15
Percent of wounds completely epithelized ([2]; 10^-4M topical, day 11 after burning, listed as B-1): (7%)
Percent of wounds completely epithelized [2, 9]: 33%
number of wounds healed (completely epithelized) over the number of wounds assessed [2, 9]:  5/15
Percent of wounds completely epithelized ([2]; 10^-4M topical, day 12 after burning, listed as B-1): (33%)
Percent of wounds completely epithelized [2, 10]: 69%
number of wounds healed (completely epithelized) over the number of wounds assessed [2, 10]: {fraction (11/16 )}
Percent of wounds completely epithelized ([2]; 10^-4M topical, day 13 after burning, listed as B-1): (69%)
time to complete epithelization compared with other treatment groups ([2]; 10^-6 M): completely epithelized sooner than all other treatment groups
Percent of wounds completely epithelized [2, 11]: (0%)
number of wounds healed (completely epithelized) over the number of wounds assessed [2, 11]:  0/15
Percent of wounds completely epithelized [2, 12]: (0%)
number of wounds healed (completely epithelized) over the number of wounds assessed [2, 12]:  0/15
Percent of wounds completely epithelized [2, 13]: (0%)
number of wounds healed (completely epithelized) over the number of wounds assessed [2, 13]:  0/15
Percent of wounds completely epithelized [2, 14]: (0%)
number of wounds healed (completely epithelized) over the number of wounds assessed [2, 14]:  0/15
number of wounds healed (completely epithelized) over the number of wounds assessed ([2]; 10^-6M topical, day 11 after burning):  5/15
number of wounds healed (completely epithelized) over the number of wounds assessed ([2]; 10^-6M topical, day 12 after burning):  7/15
number of wounds healed (completely epithelized) over the number of wounds assessed ([2]; 10^-6M topical, day 13 after burning):  6/16
Percent of wounds completely epithelized [2, 15]: (0%)
number of wounds healed (completely epithelized) over the number of wounds assessed [2, 15]:  0/15
Percent of wounds completely epithelized [2, 16]: (0%)
number of wounds healed (completely epithelized) over the number of wounds assessed [2, 16]:  0/15
Percent of wounds completely epithelized [2, 17]: (0%)
number of wounds healed (completely epithelized) over the number of wounds assessed [2, 17]:  0/15
Percent of wounds completely epithelized [2, 18]: (0%)
number of wounds healed (completely epithelized) over the number of wounds assessed [2, 18]:  0/15
Percent of wounds completely epithelized [2, 19]: 33%
number of wounds healed (completely epithelized) over the number of wounds assessed [2, 19]:  5/15
Percent of wounds completely epithelized ([2]; 10^-8M topical, day 11 after burning, listed as B-3): (33%)
Percent of wounds completely epithelized [2, 20]: 67%
number of wounds healed (completely epithelized) over the number of wounds assessed [2, 20]: {fraction (10/15 )}
Percent of wounds completely epithelized ([2]; 10^-8M topical, day 12 after burning, listed as B-3): (67%)
Percent of wounds completely epithelized [2, 21]: 67%
number of wounds healed (completely epithelized) over the number of wounds assessed [2, 21]: {fraction (40/15 )}
Percent of wounds completely epithelized ([2]; 10^-8M topical, day 13 after burning, listed as B-3): (67%)
percentage of wounds completely epithelized compared with other groups ([2]; day thirteen, all concentrations): higher percentage of wounds completely epithelized on day thirteen
wound crust colour during absorption of applied agent ([2]; first three days of treatment, normal again after 15 minutes): more pronounced
inhibition of MAO-A [3]: decreased to an even greater extent
